Laboratory results published in publication PMC11962395 (Molecular Cancer Therapeutics, 2024).

Key:
VCaP cells = test: VCaP cell proliferation assay; assay type: cell-based, human; conditions: for antiproliferative effect with increasing R1881: 300 nmol/L bavdegalutamide or 1,000 nmol/L enzalutamide, co-treatment with increasing R1881, 5 days
[1] = system: human VCaP tumor xenografts; conditions: intact VCaP xenograft model; cited from earlier work
[2] = system: patient-derived xenograft TM00298; conditions: TM00298 model; cited from earlier work
[3] = system: enzalutamide-resistant VCaP xenograft tumors; test: Tumor growth inhibition, enzalutamide-resistant VCaP xenograft model; assay type: in vivo, mice; conditions: 20 mg/kg oral every day for 28 days
TMPRSS–ERG = test: ERG protein levels in tumors, enzalutamide-resistant VCaP model
PSA [4] = conditions: TM00298 model; cited from earlier work
[5] = Animal body weights during treatment in prostate cancer mouse models; assay type: in vivo, mice
[6] = system: nearly 4,000 detectable proteins in VCaP cells; test: Proteomic screen in VCaP cells; assay type: cell-based, human; conditions: 10 nmol/L, 8 hours, filter >2× degradation, P <0.05
IKZF3 (Aiolos) = IKZF3 (Aiolos) (Homo sapiens, UniProt Q9UKT9); test: Neomorphic substrate degradation in Ramos cells: IKZF3; assay type: cell-based; conditions: increasing concentrations, 24 hours
Chain of IKZF3 (Aiolos) (Q96SW2 whole entry partner): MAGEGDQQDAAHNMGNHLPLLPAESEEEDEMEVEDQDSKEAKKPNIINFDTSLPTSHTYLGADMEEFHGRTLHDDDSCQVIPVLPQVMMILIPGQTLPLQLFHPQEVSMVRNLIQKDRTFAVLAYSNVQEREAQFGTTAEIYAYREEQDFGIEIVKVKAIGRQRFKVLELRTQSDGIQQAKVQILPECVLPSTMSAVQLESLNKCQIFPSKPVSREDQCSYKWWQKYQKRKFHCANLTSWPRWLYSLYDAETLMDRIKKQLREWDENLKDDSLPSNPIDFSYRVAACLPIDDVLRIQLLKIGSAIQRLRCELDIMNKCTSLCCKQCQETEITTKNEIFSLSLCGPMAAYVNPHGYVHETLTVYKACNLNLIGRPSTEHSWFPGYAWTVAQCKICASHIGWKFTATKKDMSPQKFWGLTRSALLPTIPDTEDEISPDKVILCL
Chain of IKZF3 (Aiolos) (Q16531 whole entry partner): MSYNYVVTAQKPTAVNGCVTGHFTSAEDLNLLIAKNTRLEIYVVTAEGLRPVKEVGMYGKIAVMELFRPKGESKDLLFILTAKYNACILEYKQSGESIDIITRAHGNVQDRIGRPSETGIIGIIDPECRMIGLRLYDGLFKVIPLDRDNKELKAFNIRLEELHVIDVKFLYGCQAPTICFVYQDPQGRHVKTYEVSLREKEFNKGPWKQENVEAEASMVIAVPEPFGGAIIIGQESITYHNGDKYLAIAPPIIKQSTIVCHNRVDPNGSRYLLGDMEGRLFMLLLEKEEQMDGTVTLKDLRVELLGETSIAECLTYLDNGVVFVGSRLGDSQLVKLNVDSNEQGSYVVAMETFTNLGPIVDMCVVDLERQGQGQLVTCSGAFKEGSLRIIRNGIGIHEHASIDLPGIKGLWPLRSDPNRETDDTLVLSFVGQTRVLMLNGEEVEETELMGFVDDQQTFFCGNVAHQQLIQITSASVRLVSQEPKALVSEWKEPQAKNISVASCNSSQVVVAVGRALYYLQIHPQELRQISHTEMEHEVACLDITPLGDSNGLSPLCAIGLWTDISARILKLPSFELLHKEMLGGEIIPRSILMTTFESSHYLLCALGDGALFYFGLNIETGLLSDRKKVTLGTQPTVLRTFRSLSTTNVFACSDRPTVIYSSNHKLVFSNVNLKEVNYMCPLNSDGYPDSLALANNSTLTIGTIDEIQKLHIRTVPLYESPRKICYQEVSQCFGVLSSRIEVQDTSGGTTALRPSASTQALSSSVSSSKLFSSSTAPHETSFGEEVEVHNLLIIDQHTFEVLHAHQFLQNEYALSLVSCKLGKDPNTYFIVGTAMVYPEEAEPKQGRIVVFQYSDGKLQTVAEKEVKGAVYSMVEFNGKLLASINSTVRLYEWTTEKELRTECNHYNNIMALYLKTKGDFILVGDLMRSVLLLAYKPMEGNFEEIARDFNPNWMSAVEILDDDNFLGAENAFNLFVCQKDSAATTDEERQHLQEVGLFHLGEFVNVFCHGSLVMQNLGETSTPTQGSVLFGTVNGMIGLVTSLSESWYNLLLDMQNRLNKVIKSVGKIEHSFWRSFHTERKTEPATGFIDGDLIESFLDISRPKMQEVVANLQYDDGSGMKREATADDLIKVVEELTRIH
Chain of IKZF3 (Aiolos) (Q9UKT9 whole entry): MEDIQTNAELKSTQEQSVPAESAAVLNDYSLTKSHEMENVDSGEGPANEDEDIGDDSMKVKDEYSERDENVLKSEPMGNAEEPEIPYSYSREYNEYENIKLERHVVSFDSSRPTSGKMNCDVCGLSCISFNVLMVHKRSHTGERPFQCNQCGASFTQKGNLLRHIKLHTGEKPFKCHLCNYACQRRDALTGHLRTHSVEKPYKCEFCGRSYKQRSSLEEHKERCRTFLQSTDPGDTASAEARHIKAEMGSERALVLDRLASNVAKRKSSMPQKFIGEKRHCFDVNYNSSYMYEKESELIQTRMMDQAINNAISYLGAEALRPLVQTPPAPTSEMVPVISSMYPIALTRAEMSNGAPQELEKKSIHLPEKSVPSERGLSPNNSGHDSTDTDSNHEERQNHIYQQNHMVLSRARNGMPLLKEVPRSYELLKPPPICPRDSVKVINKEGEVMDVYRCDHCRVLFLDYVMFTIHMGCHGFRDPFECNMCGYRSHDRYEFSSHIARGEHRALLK

rat prostate tissue = test: Rat prostate involution study; assay type: in vivo, rats; conditions: 15 and 45 mg/kg oral every day for 10 days
[7] = biological target: G1–S phase transition 1 protein (Homo sapiens, UniProt P15170); test: Neomorphic substrate degradation in Ramos cells: GSPT1; assay type: cell-based; conditions: increasing concentrations, 24 hours
Chain of G1–S phase transition 1 protein (Q16531 whole entry): as the sequence (Q16531 whole entry partner) above
Chain of G1–S phase transition 1 protein (Q96SW2 whole entry, further chain): as the sequence (Q96SW2 whole entry partner) above
Chain of G1–S phase transition 1 protein (P15170 whole entry): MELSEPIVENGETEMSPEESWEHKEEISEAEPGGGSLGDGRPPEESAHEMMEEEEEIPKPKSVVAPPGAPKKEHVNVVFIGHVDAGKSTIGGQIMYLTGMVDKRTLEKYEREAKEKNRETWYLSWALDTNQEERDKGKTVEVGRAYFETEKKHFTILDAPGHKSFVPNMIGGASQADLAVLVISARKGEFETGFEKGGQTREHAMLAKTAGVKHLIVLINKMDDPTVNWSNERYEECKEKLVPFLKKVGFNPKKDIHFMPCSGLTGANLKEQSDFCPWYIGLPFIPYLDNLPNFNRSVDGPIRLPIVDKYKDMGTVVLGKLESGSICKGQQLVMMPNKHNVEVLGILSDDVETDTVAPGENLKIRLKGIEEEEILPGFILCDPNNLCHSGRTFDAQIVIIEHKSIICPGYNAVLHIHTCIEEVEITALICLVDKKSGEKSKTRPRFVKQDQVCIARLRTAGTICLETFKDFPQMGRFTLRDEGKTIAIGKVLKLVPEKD

[8] = system: PSA synthesis in LNCaP/AR cells; test: PSA suppression assay in LNCaP/AR cells; assay type: cell-based; conditions: 48 h, read-out: IC50 (inhibition of PSA synthesis)
VCaP xenografts = test: Tumor growth inhibition, castrated VCaP xenograft model; assay type: in vivo, mice
IKZF1 (Ikaros) = IKZF1 (Ikaros) (Homo sapiens, UniProt Q13422); test: Neomorphic substrate degradation in Ramos cells: IKZF1; assay type: cell-based; conditions: increasing concentrations, 24 hours
Chain of IKZF1 (Ikaros) (Q96SW2 whole entry partner): as the sequence (Q96SW2 whole entry partner) above
Chain of IKZF1 (Ikaros) (Q16531 whole entry partner): as the sequence (Q16531 whole entry partner) above
Chain of IKZF1 (Ikaros) (Q13422 whole entry): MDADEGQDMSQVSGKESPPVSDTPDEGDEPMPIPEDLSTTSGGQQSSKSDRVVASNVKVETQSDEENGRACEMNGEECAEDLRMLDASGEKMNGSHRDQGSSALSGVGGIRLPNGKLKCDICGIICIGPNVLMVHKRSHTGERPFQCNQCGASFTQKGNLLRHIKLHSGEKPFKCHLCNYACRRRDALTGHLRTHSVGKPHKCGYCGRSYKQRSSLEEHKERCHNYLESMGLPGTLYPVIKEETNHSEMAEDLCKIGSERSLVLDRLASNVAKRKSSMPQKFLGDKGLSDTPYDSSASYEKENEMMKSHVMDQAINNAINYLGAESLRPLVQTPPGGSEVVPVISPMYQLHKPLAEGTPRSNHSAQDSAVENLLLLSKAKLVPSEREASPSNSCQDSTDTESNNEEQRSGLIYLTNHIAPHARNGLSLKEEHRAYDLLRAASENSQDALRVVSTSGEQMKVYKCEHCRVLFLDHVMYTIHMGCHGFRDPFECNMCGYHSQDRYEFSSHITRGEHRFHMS

PSA [9] = test: Plasma PSA levels, patient-derived xenograft TM00298; assay type: in vivo, mice; conditions: 10 mg/kg oral every day for 20 days, 16 hours after last dose
AR = AR degradation in CRBN-KO LNCaP and 22Rv1 cells with dox-inducible CRBN; assay type: cell-based
[10] = system: abiraterone-resistant tumors; conditions: 10 mg/kg oral every day for 19 days, phase III
SALL4 = SALL4 (Homo sapiens, UniProt Q96SW2+Q9UJQ4); test: SALL4 degradation in SK-N-DZ cells; assay type: cell-based
Chain of SALL4 (Q9UJQ4 whole entry): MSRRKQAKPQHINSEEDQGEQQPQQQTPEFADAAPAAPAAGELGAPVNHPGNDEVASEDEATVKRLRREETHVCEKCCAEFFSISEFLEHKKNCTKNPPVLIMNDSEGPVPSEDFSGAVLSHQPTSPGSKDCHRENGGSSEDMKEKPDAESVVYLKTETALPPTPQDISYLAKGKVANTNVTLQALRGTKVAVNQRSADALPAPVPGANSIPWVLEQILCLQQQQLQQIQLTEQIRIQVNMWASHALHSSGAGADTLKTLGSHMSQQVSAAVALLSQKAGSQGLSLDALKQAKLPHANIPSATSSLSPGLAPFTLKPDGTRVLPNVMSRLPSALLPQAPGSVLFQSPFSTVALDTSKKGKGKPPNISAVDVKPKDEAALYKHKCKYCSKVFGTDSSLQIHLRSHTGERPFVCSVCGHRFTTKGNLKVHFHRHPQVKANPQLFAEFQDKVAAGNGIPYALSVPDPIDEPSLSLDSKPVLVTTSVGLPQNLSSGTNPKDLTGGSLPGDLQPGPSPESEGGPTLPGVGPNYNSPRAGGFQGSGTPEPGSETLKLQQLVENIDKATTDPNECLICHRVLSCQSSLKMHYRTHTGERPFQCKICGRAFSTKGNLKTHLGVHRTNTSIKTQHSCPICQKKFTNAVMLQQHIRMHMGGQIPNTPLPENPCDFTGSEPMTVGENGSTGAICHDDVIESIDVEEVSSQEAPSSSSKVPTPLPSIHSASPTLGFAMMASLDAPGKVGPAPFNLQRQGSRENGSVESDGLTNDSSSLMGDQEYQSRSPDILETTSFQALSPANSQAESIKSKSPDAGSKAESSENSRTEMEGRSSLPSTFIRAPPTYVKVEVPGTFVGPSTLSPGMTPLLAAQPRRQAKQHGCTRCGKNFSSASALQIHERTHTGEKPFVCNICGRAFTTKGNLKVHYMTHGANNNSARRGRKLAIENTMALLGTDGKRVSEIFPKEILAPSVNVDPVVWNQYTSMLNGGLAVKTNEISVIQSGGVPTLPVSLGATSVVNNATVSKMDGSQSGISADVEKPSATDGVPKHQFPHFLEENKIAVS
Chain of SALL4 (Q96SW2 whole entry): as the sequence (Q96SW2 whole entry partner) above
Chain of SALL4 (Q16531 whole entry partner): as the sequence (Q16531 whole entry partner) above

CK1α = CK1α (Homo sapiens, UniProt P48729+Q96SW2); test: Neomorphic substrate degradation in Ramos cells: CK1α; assay type: cell-based
Chain of CK1α (P48729 whole entry): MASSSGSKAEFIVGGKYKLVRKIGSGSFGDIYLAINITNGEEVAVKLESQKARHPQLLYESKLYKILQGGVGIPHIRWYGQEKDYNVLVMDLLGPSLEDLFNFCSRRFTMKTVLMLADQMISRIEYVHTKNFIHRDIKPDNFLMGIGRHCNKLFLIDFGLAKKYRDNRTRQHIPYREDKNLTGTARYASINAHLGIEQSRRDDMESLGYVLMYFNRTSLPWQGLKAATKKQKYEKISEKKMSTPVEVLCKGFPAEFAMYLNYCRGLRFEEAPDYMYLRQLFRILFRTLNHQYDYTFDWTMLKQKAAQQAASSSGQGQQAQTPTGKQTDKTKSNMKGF
Chain of CK1α (Q96SW2 whole entry): as the sequence (Q96SW2 whole entry partner) above
Chain of CK1α (Q16531 whole entry partner): as the sequence (Q16531 whole entry partner) above

[11] = enzalutamide-resistant VCaP model
[12] = vs in vitro functional efficacy of 1 to 30 nmol/L

C[C@]1(O)CC[C@H]2[C@@H]3CCC4=CC(=O)CCC4=C3C=C[C@@]21C [R1881, reference compound]
effect of R1881 alone on proliferation (VCaP cells; VCaP cells, charcoal-stripped serum): increased the proliferation of VCaP cells

CNC(=O)c1ccc(N2C(=S)N(c3ccc(C#N)c(C(F)(F)F)c3)C(=O)C2(C)C)cc1F [Enzalutamide, reference compound]
effect on tumor growth [1]: little to no effect on tumor growth
effect on tumor growth [2]: without affecting tumor growth
TGI [3]: TGI was not observed
reduction in AR target gene TMPRSS–ERG in tumors (TMPRSS–ERG; 20 mg/kg enzalutamide): this effect did not occur
antiproliferative effect with increasing R1881 (VCaP cells; charcoal-stripped serum): antiproliferative only at R1881 concentrations <0.1 nmol/L
reduction of PSA levels (PSA [4]): approximately 50%
body weights ([5]; castrated VCaP xenograft model): Body weights were maintained
body weights [5, 11]: Body weights were maintained

N#Cc1ccc(O[C@H]2CC[C@H](NC(=O)c3ccc(N4CCC(CN5CCN(c6cc7c(cc6F)C(=O)N(C6CCC(=O)NC6=O)C7=O)CC5)CC4)nn3)CC2)cc1Cl (some centres unmarked) [Bavdegalutamide, N-[(1r,4r)-4-(3-chloro-4-cyanophenoxy)cyclohexyl]-6-[4-({4-[2-(2,6-dioxopiperidin-3-yl)-6-fluoro-1,3-dioxo-2,3-dihydro-1H-isoindol-5-yl]piperazin-1-yl}methyl)piperidin-1-yl]pyridazine-3-carboxamide]
proteins degraded in proteomic screen [6]: degradation of only AR
IKZF3 (Aiolos) degradation (IKZF3 (Aiolos)): did not lead to degradation
rat prostate involution vs enzalutamide 100 mg/kg (rat prostate tissue): significantly higher activity than enzalutamide
G1–S phase transition 1 protein degradation [7]: did not lead to degradation
IC50 [8]: 10 nM
reduction in AR target gene TMPRSS–ERG in tumors (TMPRSS–ERG; 3 or 10 mg/kg bavdegalutamide): Concomitant reductions
TGI (VCaP xenografts; 1 mg/kg oral): 101%
TGI (VCaP xenografts; 3 mg/kg oral): 109%
antiproliferative effect with increasing R1881 (VCaP cells; charcoal-stripped serum): antiproliferative effects even in the presence of 1 nmol/L R1881
IC50 (VCaP cells; Homo sapiens, VCaP, 96 h, read-out: IC50 (inhibition of VCaP cell proliferation)): 20 nM
IKZF1 (Ikaros) degradation (IKZF1 (Ikaros)): did not lead to degradation
reduction of circulating PSA levels (PSA [9]): 93%
cereblon dependence of AR degradation (AR): cereblon dependent
volume of abiraterone-resistant tumors [10]: reduced the volume of these abiraterone-resistant tumors
SALL4 degradation (SALL4; SK-N-DZ cells, 1,000 nmol/L, 24 hours): modestly degraded
window between AR and SALL4 modulation (SALL4; [12]): ≥ 10 ×
CK1α degradation (CK1α; Ramos cells, 300 to 1,000 nmol/L, 24 hours): only modest degradation
window between AR and CK1α modulation (CK1α; [12]): ≥ 10 ×
body weights ([5]; castrated VCaP xenograft model): Body weights were maintained
body weights [5, 11]: Body weights were maintained
